Experimental findings from ChEMBL document CHEMBL1150286, “Discovery and optimization of triazolopyridazines as potent and selective inhibitors of the c-Met kinase” (J Med Chem, 2008) are described below.

A short description of data set [1]: Clearance in mouse liver microsomes. The format is ADME, Microsome.
The test system of a further data set is Mus musculus. In words: Inhibition of HGF-mediated c-Met phosphorylation in orally dosed mouse liver. Format: functional. Conditions: po.
A short description of data set [2]: Clearance in rat liver microsomes. The format is ADME, Microsome.
The target in data set [3] is Aurora kinase A (Homo sapiens) (UniProt O14965). In words: Inhibition of Aur2.
The target in data set [4] is Mast/stem cell growth factor receptor Kit (Homo sapiens) (UniProt P10721). In words: Inhibition of cKit.
The target of data set [5] is Insulin-like growth factor 1 receptor (Homo sapiens) (UniProt P08069). In words: Inhibition of IGF1R.
Data set [6] has as its target Tyrosine-protein kinase ABL1 (Homo sapiens) (UniProt P00519). In words: Inhibition of Abl.
Data set [7] has as its target Proto-oncogene tyrosine-protein kinase Src (Homo sapiens) (UniProt P12931). In words: Inhibition of Src.
Data set [8] can be described thus: Inhibition of p38.
Data set [9] concerns the target Ribosomal protein S6 kinase alpha-5 (Homo sapiens) (UniProt O75582). In words: Inhibition of Msk1.
The target in data set [10] is Angiopoietin-1 receptor (Homo sapiens) (UniProt Q02763). In words: Inhibition of Tie2.
Data set [11] deals with Cyclin-dependent kinase 5 (Homo sapiens) (UniProt Q00535). In words: Inhibition of CDK5.
Data set [12] concerns the target Vascular endothelial growth factor receptor 2 (Homo sapiens) (UniProt P35968). In words: Inhibition of KDR.
In data set [13] the target is RAC-alpha serine/threonine-protein kinase (Homo sapiens) (UniProt P31749). In words: Inhibition of PKBalpha.
In data set [14] the target is Tyrosine-protein kinase Lck (Homo sapiens) (UniProt P06239). In words: Inhibition of Lck.
Data set [15] deals with Tyrosine-protein kinase JAK2 (Homo sapiens) (UniProt O60674). In words: Inhibition of Jak2.
A short description of data set [16]: Bioavailability in Sprague-Dawley rat at 2 mg/kg, po. Conditions: in vivo. The format is ADME, organism-based.
A short description of data set [17]: Drug level in orally dosed mouse plasma after 6 hrs. The format is ADME, organism-based. Conditions: po.
Data set [18] has as its target Tyrosine-protein kinase BTK (Homo sapiens) (UniProt Q06187). In words: Inhibition of Btk.
The nature of data set [19]: Volume of distribution in steady state in Sprague-Dawley rat at 0.25 mg/kg, iv. The format is ADME, organism-based. More on the design: dose 0.25 mg/kg, route intravenous. Conditions: in vivo, read-out: Vdss.
Data set [20] has as its target T1, Hepatocyte growth factor receptor (Homo sapiens, UniProt P08581). In words: Inhibition of c-Met by HTRF assay. Background: Time-resolved FRET reads energy transfer from a long-lived donor to a nearby acceptor.
For data set [21], the target named is Mitogen-activated protein kinase 9 (Homo sapiens) (UniProt P45984). In words: Inhibition of JNK2.
A short description of data set [22]: Half life in Sprague-Dawley rat at 0.25 mg/kg, iv. Format: ADME, organism-based. The arrangement: dose 0.25 mg/kg, route intravenous. Conditions: in vivo.
A short description of data set [23]: Clearance in Sprague-Dawley rat at 0.25 mg/kg, iv. Format: ADME, organism-based. More on the design: dose 0.25 mg/kg, route intravenous. The conditions noted are these: in vivo.
For data set [24], the target named is Mitogen-activated protein kinase 3 (Homo sapiens) (UniProt P27361). In words: Inhibition of Erk1.
A short description of data set [25]: Inhibition of PKAalpha.
The nature of data set [26]: AUC (0 to infinity) in Sprague-Dawley rat at 2 mg/kg, po. Format: ADME, organism-based. More on the design: time infinity, dose 2 mg/kg, route oral. Conditions: plasma.
Data set [27] concerns the target T1, Hepatocyte growth factor receptor.
Description: Inhibition of HGF-mediated c-Met phosphorylation in serum-starved human PC2 cells
A short description of data set [28]: Clearance in Sprague-Dawley rat at 0.5 mg/kg, iv. The format is ADME, organism-based. The arrangement: dose 0.5 mg/kg, route intravenous. Conditions: in vivo.
A short description of data set [29]: Volume of distribution in steady state in Sprague-Dawley rat at 0.5 mg/kg, iv. More on the design: dose 0.5 mg/kg, route intravenous. Format: ADME, organism-based. Conditions: in vivo, read-out: Vdss.
The nature of data set [30]: Half life in Sprague-Dawley rat at 0.5 mg/kg, iv. Format: ADME, organism-based. More on the design: dose 0.5 mg/kg, route intravenous. The conditions noted are these: in vivo.

Each structure is given as a SMILES string.

A word on the microsomal CLint: it is the capacity of the preparation to metabolise the compound, expressed as a volume cleared per time. Low readings indicate greater metabolic stability, high ones faster metabolism. For orientation: bioavailability means the share of a dose that reaches the circulation, judged against a reference dose that is usually intravenous. Read a low bioavailability as little systemic uptake. A word on the IC50: it is the concentration at which inhibition is half-maximal. One may read the half-life as how long it takes for the measured level to halve. Low readings indicate rapid decline, high ones slow decline. As usually defined, the clearance is a measure of how efficiently the substance is removed, as volume per time. A low value points to inefficient removal. The term AUC(0-inf) denotes total exposure, with the tail of the curve extrapolated.

For `COc1ccc2c(OCc3nnc4ccc(-c5cc(F)c(F)c(F)c5)nn34)ccnc2c1`, the intrinsic metabolic clearance (microsomal CLint) in [1] was 156 µL/min/mg; in data set [2], 190 µL/min/mg. Besides, the ED90 in the data set on Mus musculus was determined as 30 mg/kg. For the same molecule, the Activity in [3], in [4], in data set [5], in [6], in data set [7] and in data set [8] was greater than 10 µM throughout. For the same molecule, the Activity in [9], in [10], in data set [11], in [12], in data set [13] and in data set [14] was greater than 10 µM throughout. Further, the Activity in data set [15], in data set [18], in data set [21], in data set [24] and in data set [25] was greater than 10 µM in each case. This molecule also registered a bioavailability in [16] of 22%. This molecule displayed a concentration at 6 h in data set [17] of 6.7 µM. In addition, in [19], the Vd came to 0.152 L/kg. Besides, the figures for the IC50 in [20] and in [27] were 4 nM and 7 nM, respectively. In [22], this molecule had a half-life of 3.5 h. For the same molecule, the clearance in data set [23] was 0.967 mL/min/kg. The AUC(0-inf) in data set [26] came out at 7840 ng·h/mL.
Regarding `COc1ccc2c(OCc3nnc4ccc(-c5ccccc5)nn34)ccnc2c1` [AMG-208], the clearance in [28] is 6.17 mL/min/kg. Further, the microsomal CLint in data set [1] was 122 µL/min/mg; in data set [2], 131 µL/min/mg. For the same molecule, in data set [29], the Vd was determined as 0.38 L/kg. The half-life in data set [30] is 1 h. The same molecule had a bioavailability in [16] of 43%. The same molecule gave an AUC(0-inf) in data set [26] of 2520 ng·h/mL. This molecule showed an IC50 in data set [27] of 46 nM.
Turning to `COc1ccc2c(OCc3nnc4ccc(-c5cc(C)ns5)nn34)ccnc2c1`, the microsomal CLint stood at 173 µL/min/mg in data set [1] and 420 µL/min/mg in [2]. The same molecule gave a bioavailability in data set [16] of 59%. Moreover, the Vd in data set [19] was 0.35 L/kg. The molecule also gave a half-life in data set [22] of 2.58 h. The clearance in data set [23] was 4 mL/min/kg. For the same molecule, the AUC(0-inf) in data set [26] came to 5100 ng·h/mL.
